{"source": "patent US20250241863A1", "about": "“COMPOSITIONS AND METHODS FOR TARGETED DELIVERY OF THERAPEUTIC AND/OR DIAGNOSTIC SPECIES” (THE PENN STATE RESEARCH FOUNDATION, priority 2017, published 2025)", "key": {"[1]": {"assay": "activation temperature of the retro Diels-Alder reaction of the linker groups (FIG. 7)", "type": "physicochemical", "conditions": "linker group in FIG. 7", "from_the_text": "(§1) For different Diels-Alder cyclo-addition products, the retro (or reverse) Diels-Alder reaction will occur or be initiated at different temperatures (i.e., different activation temperatures). Thus, by varying the Diels-Alder cyclo-addition product in the linker group, breaking up or cleaving of the Diels-Alder cyclo-addition product (and concomitant decoupling of the therapeutic species and the nanoparticle) can be “tuned” to occur at different temperatures."}, "[2]": {"assay": "temperature dependency of retro Diels-Alder reaction (release of fluorescent si-RNA) for linker connected to a nanoparticle (FIGS. 10, 11)", "type": "physicochemical", "conditions": "for cleavage of the linker: linker connected to a nanoparticle", "from_the_text": "as §1\nSpecifically, to conjugate a FAM-tagged RFP antisense siRNA mimic, an EDC coupling protocol was used with […] of an aqueous EDC/NHS (100 mM) stock solution added to each of the three resuspended nanoparticle aliquots prepared in Example 3, followed by […] of the amine-terminated siRNA (4 mM), After 24 h, the particles were again centrifuged, washed, and resuspended in DI water. A control sample in which cysteamine modified SNPs were linked to the 6-maleimidohexanoic acid via EDC coupling was also prepared, similarly to the pyrrole-based reaction described above, but without addition of the diene, to test the stability of both the amide and thiol linkages. Conjugation of the linkers and siRNA was tested by chemically reducing the Ag-linker bond using TCEP reagent (tris(2-carboxyethyl)phosphine hydrochloride) and measuring FAM intensity of the supernatant.\nThe products of these reactions (pyrrole, furan, and thiophene-based) were analyzed. For example, the temperature dependency of the retro Diels Alder reaction (and release of the fluorescent si-RNA) was evaluated. […] The fluorescence intensity of the treated sample is assumed to indicate maximum release (due to cleavage/retro (or reverse) Diels Alder reaction)."}, "PAM2 skin cancer cells": {"test_system": "PAM2 skin cancer cells", "assay": "anti-cancer effects of released miRN-148b in PAM2 cells (FIG. 23)", "type": "cell-based", "conditions": "PAM2 cells transfected, 7 days after transfection (positive control)", "procedure": "(§2) The anti-cancer effects towards PAM2 skin cancer cells of miRN-148b released from compositions described herein were explored using a furan-based linker conjugated with a FAM-tagged miRN-148b and an SNP. The furan-based linker composition was prepared according to Examples 1-5. SNPs surface-modified with miRNA mimics via Diels-Alder linkage, were sterilized in 70/30% ethanol and water solution prior to washing and resuspension in RNAse-free water. Subsequently, appropriate nanoparticle solution volumes were added, based on required dosages, to the adherent monolayer PAM2 cells at optimal seeding densities, immersed in appropriate cell culture media. Transfection was allowed to occur at 37° C. for 24 h.\nFIG. 23A is a negative control showing fluorescence of the PAM2 cells in the presence of silver nanoparticles prepared in accordance with Example 1 after 7 days. FIG. 23B is a positive control showing PAM2 cells transfected with FAM-tagged miRN-148b 7 days after transfection."}, "[3]": {"test_system": "Ras-induced keratinocyte lung cancer cells", "assay": "anti-cancer effects of released miRN-148b in Ras-induced keratinocyte cells (FIG. 24)", "type": "cell-based", "conditions": "keratinocyte cells transfected with 100 nM, after 7 days", "procedure": "as §2, with “Ras-induced keratinocyte lung” for “PAM2 skin”\nFIG. 24A is a negative control of keratinocyte cells in the absence of the composition and FAM-tagged miRN-148b after 7 days. FIG. 24B is a positive control of keratinocyte cells after 7 days, which have been transfected with FAM-tagged miRN-148b (100 nM)."}}, "note": "{FAM} = fluorescein (FAM) label; {NH2} = amine modification"}
{"compound": "O=C(O)CCCCCN1C(=O)C2C3C=CC(CS)(S3)C2C1=O", "note": "(centres unmarked) [thiophene-based linker group]", "values": [{"measurement": "activation temperature of the retro Diels-Alder reaction", "setting": "[1]", "result": "around 80 °C"}, {"measurement": "cleavage of the linker", "setting": "[2]; after 2 hours of heating at 37° C., 60° C., and 80° C.", "result": "not observed until 80 °C"}]}
{"compound": "FAM-tagged miRN-148b: 3′amine/5′-FAM modified single stranded siRNA, sequence UUGGAGCCGUACUGGAACUUG (5' {FAM}, 3' {NH2}, sugars by position and backbone not given here)", "values": [{"measurement": "cell proliferation and growth", "setting": "PAM2 skin cancer cells", "result": "reduced cell proliferation and growth"}, {"measurement": "cell growth", "setting": "[3]", "result": "normal cell behavior"}]}
{"compound": "O=C(O)CCCCCN1C(=O)C2C3C=CC(CS)(O3)C2C1=O", "note": "(centres unmarked) [furan-based linker group]", "values": [{"measurement": "activation temperature of the retro Diels-Alder reaction", "setting": "[1]", "result": 60, "unit": "°C"}, {"measurement": "speed of cleavage of the linker compared with the thiophene-based linker", "setting": "[2]; FIGS. 10 and 11", "result": "faster at lower temperatures"}, {"measurement": "cleavage of the linker", "setting": "[2]; after 1 hour of heating, at 60° C.", "result": 25, "unit": "%"}]}
{"compound": "O=C(O)CCCCCN1C(=O)C2C3C=CC(C(=O)O)(N3)C2C1=O", "note": "(centres unmarked) [pyrrole-based linker group]", "values": [{"measurement": "activation temperature of the retro Diels-Alder reaction", "setting": "[1]", "result": 40, "unit": "°C"}]}
